Where “and” joins values, the source holds several entries; their conditions need not be identical. Identical values can stand only once. Like-named read-outs stand apart in the source and are kept apart here.
Assays:
[1] = system: TTX-R INa (VGSCs of DRG neurons); format: cell-based, rat
[2] = system: total INa (VGSCs of DRG neurons); experiment: Steady-state inactivation, 100-ms conditioning pre-pulses, total INa; format: cell-based, rat; conditions: EUG 2 mM, LID 1 mM
[3] = system: total INa (VGSCs of DRG neurons); experiment: Voltage dependence of Na+ conductance activation (I-V and G-V curves), total INa; format: cell-based, rat; conditions: EUG 2 mM, LID 1 mM
[4] = system: total INa (VGSCs of DRG neurons); conditions: EUG 2 mM, LID 1 mM
[5] = system: total INa (VGSCs of DRG neurons); experiment: INa inactivation time constants during test pulse, total INa; format: cell-based, rat
[6] = system: TTX-R INa (VGSCs of DRG neurons); experiment: Slow inactivation entry, three-pulse protocol, TTX-R INa; format: cell-based, rat
[7] = system: TTX-R INa (VGSCs of DRG neurons); format: cell-based, rat; conditions: EUG 2 mM, LID 1 mM
VGSCs = system: VGSCs; set-up: method as in Clarkson et al., 1988; Sheets et al., 2010; conditions: 10-s conditioning pulse; ref Clarkson et al., 1988; Sheets et al., 2010; cited from earlier work
[8] = system: total INa (VGSCs of DRG neurons); experiment: Slow inactivation entry, three-pulse protocol, total INa; format: cell-based, rat
[9] = system: TTX-R INa (VGSCs of DRG neurons); experiment: Voltage dependence of Na+ conductance activation (I-V and G-V curves), TTX-R INa; format: cell-based, rat; conditions: EUG 2 mM, LID 1 mM
[10] = system: TTX-R INa (VGSCs of DRG neurons); format: cell-based, rat; conditions: EUG 2 mM, LID 1 mM; remark: listed apart in the source
[11] = system: persistent total INa (DRG neurons); experiment: Persistent total INa at the end of 50-ms depolarizing pulses; format: cell-based, rat; conditions: EUG 2 mM, LID 1 mM
[12] = system: TTX-R INa (VGSCs of DRG neurons); format: cell-based, rat; remark: listed apart in the source
[13] = system: total INa (VGSCs naturally expressed on dorsal root ganglion sensory neurons); experiment: Dose–response inhibition of total INa peak, whole-cell patch clamp; format: cell-based, rat
[14] = system: total INa (VGSCs of DRG neurons); experiment: Inhibition in depolarization time series at 2 and 5 Hz, total INa; format: cell-based, rat; conditions: EUG 2 mM, LID 1 mM
[15] = individual cells, during exposure to EUG 2 mM or LID 1 mM

Structure (SMILES): CCN(CC)CC(=O)Nc1c(C)cccc1C [LID, lidocaine]
- Effect on inactivation time constants [1]: unaffected
- Shift of the steady-state inactivation curve, on average ([2]; 100-ms conditioning pulse): −5 mV
- Max slope-inact [2]: −10.2 ± 0.50 (n = 6) ns mV/e-fold
- V1/2-inact [2]: −50.6 ± 3.04 (n = 6) mV
- Max slope-inact in individual cells ([2]; individual cells): -10.01 mV/efold and -11.35 mV/efold and -9.163 mV/efold and -11.45 mV/efold and -10.7 mV/efold
- V1/2-inact in individual cells ([2]; individual cells): -42.62 mV and -59.61 mV and -54.7 mV and -48.47 mV and -56.32 mV
- Max slope-act [3]: 5.4 ± 0.55 (n = 5) mV/e-fold
- V1/2-act [3]: −15.6 ± 1.87 (n = 5) ns mV
- Max slope-act in individual cells ([3]; individual cells): 3.305 mV/efold and 5.718 mV/efold and 5.241 mV/efold and 6.129 mV/efold and 6.443 mV/efold
- V1/2-act in individual cells ([3]; individual cells): -10.84 mV and -17.68 mV and -19.58 mV and -11.29 mV and -18.64 mV
- Time constant of the inhibiting effect increase with P1 duration at −70 mV [4]: 709 ms and ~700 ms
- Effect on inactivation time constants [5]: unaffected
- Fast inactivation entry time constant ([6]; EUG 2 mM, LID 1 mM): 33.05 ± 11.57 ms
- Fractional current when P1 = 2 m ([6]; EUG 2 mM, LID 1 mM): 0.76 ± 0.049
- Percent fast component (slow inactivation entry) ([6]; EUG 2 mM, LID 1 mM): 35.03 ± 6.913%
- Slow inactivation entry time constant ([6]; EUG 2 mM, LID 1 mM): 287.01 ± 49.765 s
- Slow inactivation state entry kinetics of INa, individual cells [6, 15]: 210.90 and 156.80 and 90.580 and 123.40 and 113.30
- Fractional inhibition, 2 Hz, 1st pulse [7]: 0.40 ± 0.025 (n = 8)
- Fractional inhibition, 2 Hz, 20th pulse [7]: 0.55 ± 0.040 (n = 8)
- Fractional inhibition, 5 Hz, 1st pulse [7]: 0.37 ± 0.027 (n = 7)
- Fractional inhibition, 5 Hz, 20th pulse [7]: 0.64 ± 0.054 (n = 7)
- Fractional current after blockade, 2 Hz, 1st pulse, individual cells ([7]; individual cells): 0.58 and 0.49 and 0.64 and 0.53 and 0.56 and 0.59 and 0.67 and 0.68
- Fractional current after blockade, 2 Hz, 20th pulse, individual cells ([7]; individual cells): 0.3 (2×) and 0.5 and 0.51 and 0.46 and 0.57 and 0.50 and 0.41
- Fractional current after blockade, 5 Hz, 1st pulse, individual cells ([7]; individual cells): 0.55 and 0.51 and 0.68 (2×) and 0.62 and 0.69
- Fractional current after blockade, 5 Hz, 20th pulse, individual cells ([7]; individual cells): 0.18 and 0.15 and 0.34 and 0.50 and 0.42
- Shift of the available curve (VGSCs): 10 mV
- Fast inactivation entry time constant ([8]; EUG 2 mM, LID 1 mM): 25.04 ± 10.996 ms
- Fractional current when P1 = 2 m ([8]; EUG 2 mM, LID 1 mM): 0.62 ± 0.067
- Percent fast component (slow inactivation entry) ([8]; EUG 2 mM, LID 1 mM): 59.86 ± 4.320 %
- Slow inactivation entry time constant ([8]; EUG 2 mM, LID 1 mM): 292.87 ± 117.879 s
- Slow inactivation state entry kinetics of INa, individual cells [8, 15]: 84.13 and 39.12 and 7.878 and 39.45 and 54.65
- Max slope-act [9]: 7.6 ± 0.84 (n = 9) mV/e-fold
- V1/2-act [9]: −15.3 ± 3.51 (n = 9) ns mV
- Max slope-act in individual cells ([9]; individual cells): 2.416 mV/efold and 6.095 mV/efold and 7.402 mV/efold and 6.184 mV/efold and 9.974 mV/efold and 8.405 mV/efold and 10.98 mV/efold and 7.92 mV/efold and 8.84 mV/efold
- V1/2-act in individual cells ([9]; individual cells): 2.959 mV and -9.166 mV and -6.571 mV and -19.84 mV and -6.716 mV and -25.02 mV and -21.81 mV and -25.87 mV and -25.3 mV
- Shift of the steady-state inactivation curve, on average ([10]; 100-ms conditioning pulse): −4 mV
- Max slope-inact [10]: −7.2 ± 1.24 (n = 9) ns mV/e-fold
- V1/2-inact [10]: −32.6 ± 2.86 (n = 9) mV
- Max slope-inact in individual cells ([10]; individual cells): -4.454 mV/efold and -5.078 mV/efold and -4.311 mV/efold and -4.855 mV/efold and -12.65 mV/efold and -5.321 mV/efold and -10.59 mV/efold and -13.14 mV/efold and -5.017 mV/efold
- V1/2-inact in individual cells ([10]; individual cells): -13.3 mV and -32.45 mV and -43.07 mV and -41.77 mV and -33.88 mV and -29.54 mV and -30.3 mV and -34.82 mV and -34 mV
- Inhibition of persistent total INa after 50-ms depolarization [11]: fails to inhibit
- Hill coefficient [12]: 0.67 ± 0.088
- Reversibility of inhibition after drug washout [12]: fully reversible
- Dose response curves' data, Average (fractional current) ([12]; drug at 0.01 mM): 0.82
- Dose response curves' data, Average (fractional current) ([12]; drug at 0.1 mM): 0.78
- Dose response curves' data, Average (fractional current) ([12]; drug at 0.3 mM): 0.55
- Dose response curves' data, Average (fractional current) ([12]; drug at 1 mM): 0.38
- Dose response curves' data, Average (fractional current) ([12]; drug at 3 mM): 0.26
- Dose response curves' data, Average (fractional current) ([12]; drug at 10 mM): 0.06
- Dose response curves' data, Average (fractional current) ([12]; drug at 30 mM): 0.00
- IC50 ([12]; holding −110 mV, test +20 mV, read-out: IC50): 440 ± 87 µM
- Time series of INa blockade, Average (normalized current) ([12]; time 15 sec, drug exposure): 0.700
- Time series of INa blockade, Average (normalized current) ([12]; time 20 sec, drug exposure): 0.688
- Time series of INa blockade, Average (normalized current) ([12]; time 25 sec, drug exposure): 0.698
- Time series of INa blockade, Average (normalized current) ([12]; time 30 sec, recovery): 0.954
- Time series of INa blockade, Average (normalized current) ([12]; time 35 sec, recovery): 0.981
- Time series of INa blockade, Average (normalized current) ([12]; time 40 sec, recovery): 1.000
- Pre-inhibition of total INa ([13]; LID at 0.5 mM): 25%
- Reversibility of inhibition after drug washout ([13]; total INa): fully reversible
- Dose response curves' data, Average (fractional current), LID (EUG 1.3 mM) ([13]; total INa, LID 0.1 mM in the presence of EUG 1.3 mM): 0.98
- Dose response curves' data, Average (fractional current), LID (EUG 1.3 mM) ([13]; total INa, LID 0.3 mM in the presence of EUG 1.3 mM): 0.63
- Dose response curves' data, Average (fractional current), LID (EUG 1.3 mM) ([13]; total INa, LID 1 mM in the presence of EUG 1.3 mM): 0.45
- Dose response curves' data, Average (fractional current), LID (EUG 1.3 mM) ([13]; total INa, LID 3 mM in the presence of EUG 1.3 mM): 0.19
- Dose response curves' data, Average (fractional current), LID (EUG 1.3 mM) ([13]; total INa, LID 10 mM in the presence of EUG 1.3 mM): 0.08
- Hill coefficient ([13]; total INa, drug alone): 1 and 1.02 ± 0.169
- Dose response curves' data, Average (fractional current) ([13]; total INa, drug at 0.001 mM): 1.00
- Dose response curves' data, Average (fractional current) ([13]; total INa, drug at 0.03 mM): 0.95
- Dose response curves' data, Average (fractional current) ([13]; total INa, drug at 0.1 mM): 0.89
- Dose response curves' data, Average (fractional current) ([13]; total INa, drug at 0.3 mM): 0.79
- Dose response curves' data, Average (fractional current) ([13]; total INa, drug at 1 mM): 0.67
- Dose response curves' data, Average (fractional current) ([13]; total INa, drug at 3 mM): 0.29
- Dose response curves' data, Average (fractional current) ([13]; total INa, drug at 10 mM): 0.09
- IC50 ([13]; total INa, holding −110 mV, test +20 mV, drug alone, read-out: IC50): 1.42 ± 0.169 mM
- Time series of INa blockade, Average (normalized current) ([13]; total INa, time 15 sec, drug exposure): 0.63
- Time series of INa blockade, Average (normalized current) ([13]; total INa, time 20 sec, drug exposure): 0.63
- Time series of INa blockade, Average (normalized current) ([13]; total INa, time 25 sec, drug exposure): 0.63
- Time series of INa blockade, Average (normalized current) ([13]; total INa, time 30 sec, recovery): 0.99
- Time series of INa blockade, Average (normalized current) ([13]; total INa, time 35 sec, recovery): 1.01
- Time series of INa blockade, Average (normalized current) ([13]; total INa, time 40 sec, recovery): 1.01
- Fractional inhibition, 2 Hz, 1st pulse [14]: 0.46 ± 0.034 (n = 7)
- Fractional inhibition, 2 Hz, 20th pulse [14]: 0.54 ± 0.044 (n = 7)
- Fractional inhibition, 5 Hz, 1st pulse [14]: 0.47 ± 0.021 (n = 5)
- Fractional inhibition, 5 Hz, 20th pulse [14]: 0.81 ± 0.055 (n = 5)
- Fractional current after blockade, 2 Hz, 1st pulse, individual cells ([14]; individual cells): 0.42 and 0.6 and 0.65 and 0.46 and 0.55 and 0.48 and 0.66
- Fractional current after blockade, 2 Hz, 20th pulse, individual cells ([14]; individual cells): 0.57 and 0.34 and 0.45 and 0.42 and 0.58 and 0.31 and 0.51
- Fractional current after blockade, 5 Hz, 1st pulse, individual cells ([14]; individual cells): 0.73 and 0.48 and 0.51 (2×) and 0.60
- Fractional current after blockade, 5 Hz, 20th pulse, individual cells ([14]; individual cells): 0.53 and 0.06 and 0.07 and 0.25 and 0.26
